Earlier results in patent publication US7649096B2, “Process for the preparation of a crystalline form of (S)-N [[3-(3-fluoro-4(4-morpholinyl) phenyl]-2-oxo-5-oxazolidinyl] methyl] acetamide” (Glenmark Pharmaceuticals Limited, priority 2005, dated 2010).

What was measured:
streptococci = settings: majority of strains
enterococci = settings: against enterococci
staphylococci = settings: against staphylococci

## CC(=O)NC[C@H]1CN(c2ccc(N3CCOCC3)c(F)c2)C(=O)O1 [linezolid, (S)-N-[[3-[3-fluoro-4-(4-morpholinyl)phenyl]-2-oxo-5-oxazolidinyl]methyl]acetamide]
streptococci
  results of time-kill studies (bacteriostatic or bactericidal): bactericidal for the majority of strains
enterococci
  results of time-kill studies (bacteriostatic or bactericidal): bacteriostatic
staphylococci
  results of time-kill studies (bacteriostatic or bactericidal): bacteriostatic
